Data as given in patent US20100190715A1, “Stable Formulations of Peptides” (Novo Nordisk A/S, priority 2003, published 2010).

What was measured:
[1] = Proton NMR spectroscopy of solvent and buffer effects on structure and dynamics in solution; format: physicochemical
Procedure: FIG. 10. Proton NMR spectrum of acylated GLP-1 with different additives at pH 7.9. N-terminal histidine signals of the imidazol sidechain are observed at approx 7.80 ppm and 7.00 ppm. The linewidth and position reflects the reduced flexibility of the N-terminal. NMR samples were prepared with 6 mg/ml acylated GLP-1 at pH 7.9 dissolved in 90%/10% H2O/D2O. NMR spectra were recorded at 600 MHz using a Varian Inova 600 MHz NMR instrument using 5 mm samples tubes. Sample volumes were 800 ul and spectra were measured at 27 degrees Celsius
FIG. 11. Amide protons of glu-9 (8.65 ppm) and gly-10 (8.42 ppm) under the same conditions as in FIG. 10. More intense amide proton signals reflect that these protons are relatively better shielded structurally from exchange with the water.
Proton NMR spectroscopy of proteins in solutions has become a powerful technique to study structure and dynamics of a pure protein in solution (Wüthrich, K, “NMR of Proteins and Nucleic Acids”, (1986), ISBN 0-471-82893-9). Each proton (or proton group) in a protein will give rise to a resonance peak at a frequency which depends on the chemical and physical environment in the vicinity of each proton (or proton group) in the protein. A skilled artisan in the field of protein NMR spectroscopy will be able to assign most of the resonance peaks of a proton NMR spectrum of a protein to specific protons (or proton groups) in the protein given that the actual behavior of the protein in solution give rise to a well resolved proton NMR spectrum (well known to the skilled artisan in the field). The line width of the resonance peaks in the protein NMR spectrum reflects to some extend the size and dynamic properties of the protein in solution.
Aqueous solution of acylated GLP-1 at concentrations between 1 and 30 mg/ml, with or without buffers in the pH range 7.0 to 8.2 give rise to NMR spectra that to a high extend allow the afore mentioned resonance assignment. Thus several resonances of the NMR spectrum of this peptide can be assigned to specific atomic groups in the peptide. Recording NMR spectra of acylated GLP-1 under the conditions mentioned above but with different buffer substances in the solution allows a direct comparison of the structural and dynamical changes that acylated GLP-1 undergo as different buffers are applied.

[2] = ThT fluorescence assay of fibril formation (physical stability); format: physicochemical
Procedure: FIG. 1. ThT fluorescence assay of fibril formation in acylated GLP-1 samples. The samples contain 6 mg/ml acylated GLP-1, 5 μM ThT dissolved in water and adjusted to the stated pH. Experimental conditions are described in “Examples”. Briefly, the samples were incubated at 40° C. and shaken with 960 rpm in an Ascent Fluoroskan fluorescence plate reader. All data points are from the same experiment (i.e. all samples are from the same microtiterplate) and are means of eight replica and shown with standard deviations as error bars. Furthermore, these values at 20 and 40 hours are tabulated for each sample.
Low physical stability of a peptide may lead to amyloid fibril formation, which is observed as well-ordered, thread-like macromolecular structures in the sample eventually resulting in gel formation. This has traditionally been measured by visual inspection of the sample. However, that kind of measurement is very subjective and depending on the observer. Therefore, the application of a small molecule indicator probe is much more advantageous. Thioflavin T (ThT) is such a probe and has a distinct fluorescence signature when binding to fibrils [Naiki et al. (1989) Anal. Biochem. 177, 244-249; LeVine (1999) Methods. Enzymol. 309, 274-284].
The time course for fibril formation can be described by a sigmoidal curve with the following expression [Nielsen et al. (2001) Biochemistry 40, 6036-6046]:
Here, F is the ThT fluorescence at the time t (see FIG. 12). The constant t0 is the time needed to reach 50% of maximum fluorescence. The two important parameters describing fibril formation are the lag-time calculated by t0−2τ and the apparent rate constant kapp=1/τ.
Samples were prepared freshly before each assay. Usually, acylated GLP-1 was dissolved to 6 mg/ml in desired buffer or solvent. The pH of the sample was adjusted to the desired value using appropriate amounts of concentrated NaOH and HClO4. Thioflavin T was added to the samples from a 1 mM stock solution in H2O to a final concentration of 5 μM.
Sample aliquots of 100 μl were placed in a 96 well microtiter plate (Packard Opti-Plate™-96, white polystyrene). Usually, eight replica of each sample (corresponding to one test condition) was placed in one column of wells. The plate was sealed with Scotch Pad (Qiagen).
Incubation at given temperature, shaking and measurement of the ThT fluorescence emission were done in a Fluoroskan Ascent FL fluorescence platereader (Thermo Labsystems). Temperature setting is possible up till 45° C., but usually sat at 40° C. The orbital shaking is selectable up till 1200 rpm, but adjusted to 960 rpm with an amplitude of 1 mm in all the presented data. Fluorescence measurement was done using excitation through a 444 nm filter and measurement of emission through a 485 nm filter.
Each run was initiated by incubating the plate at the assay temperature for 10 min. The plate was measured each hour for typically 45 hours. Between each measurement, the plate was shaken and heated as adjusted.
The measurement points were saved in Microsoft Excel format for further processing and curve drawing and fitting was performed using GraphPad Prism. The background emission from ThT in the absence of fibrils was negligible. The data points are typically a mean of eight samples and shown with standard deviation error bars. Only data obtained in the same experiment (i.e. samples on the same plate) are presented in the same graph ensuring a relative measure of fibrillation between experiments.
The data set may be fitted to Eq. (1). However, since full sigmodial curves in this case are not usually achieved during the measurement time, the degree of fibrillation is expressed as ThT fluorescence at 20 and 40 hours, calculated as the mean of the eight samples and shown with the standard deviation.

- order and rigidity of the N-terminal ([1]; non buffered solution or buffered with HEPES, bicine or histidine, pH 7.9): more ordered and rigid
- fibril formation ([2]; 8 mM phosphate, pH8.15): fibril formation is already observed
- physical stability ([2]; 10 mM HEPES, pH gradually lowered from pH7.9 to pH7.51): slightly more physically unstable
- physical stability ([2]; 10 mM His, lowering the pH): only marginally less stable
- fibrillation ([2]; 10 mM NaCl added to solution in water pH 7.9): promotes fibrillation
- physical stability ([2]; aqueous solution non buffered or buffered with HEPES or BICINE, versus 8 mM phosphate pH7.92): significantly more physically stable
- tendency to fibril formation ([2]; phosphate lowered from 8 mM to 1 mM at pH7.9): Less tendency to fibril formation
- fibrillation ([2]; water adjusted to pH7.85, incubated 45 hours): No significant fibrillation
- fibrillation ([2]; water adjusted to pH8.14, incubated 45 hours): No significant fibrillation
- physical stability ([2]; water at pH7.53): comparable with 8 mM phosphate pH7.88
Substance: Arg^34, Lys^26(N^ε-(γ-Glu(N^α-hexadecanoyl)))-GLP-1(7-37) [acylated GLP-1]
- amide proton resonances of glutamic acid residue 9 and glycine residue 10 ([1]; 8 mM phosphate at pH 7.9 compared to non-buffered, 6 mg/ml): almost disappearance of amides protons resonances
- protection of amide protons of Glu 9 and Gly 10 from water ([1]; aqueous solution without buffer substance versus 8 mM phosphate buffer): relatively more protected from the water molecules
- self-assembly in solution ([1]; concentration range 1 to 30 mg/ml): bundle up in assemblies with several but well defined and limited number of acylated GLP-1 molecules
- fibrillation ([2]; 10 mM BICINE buffer): without significantly increasing the fibrillation compared to water at pH7.89
- fibrillation ([2]; 10 mM HEPES buffer): without significantly increasing the fibrillation compared to water at pH7.89
- physical stability ([2]; 10 mM HEPES pH7.73): as physically stable as in 8 mM phosphate pH8.15
- physical stability ([2]; 10 mM His, pH 7.5): much more physically stable than acylated GLP-1 in non buffered aqueous solution pH7.5
- physical stability ([2]; 10 mM His, pH7.9): same physical stability of acylated GLP-1 as obtained in water at pH7.9
- physical stability ([2]; 10 mM MOPS): more physical stable than a solution in 8 mM phosphate at pH8.14
- physical stability ([2]; 10 mM TES): more physical stable than a solution in 8 mM phosphate at pH8.14
- physical stability ([2]; dissolved in water rather than phosphate buffer (8 mM), 6 mg/ml, 40° C., 960 rpm): significant increase in physical stability
- fibrillation lag-time ([2]; lowering pH in the interval pH 8.2 to pH 7.5, all examples): shorter and shorter fibrillation lag-times
